The target of this test is T1, hFASN enzyme (full length) (Homo sapiens, UniProt P49327).
T1 construct: 10 μL hFASN enzyme (full length, 300 ng, purified in house); made in house
Briefly: Fatty Acid Synthase (FASN) inhibition scintillation proximity assay. Type of test: biochemical. The settings on record: for inhibition at 10 µM: read-out: Human FASN % inhibition @ 10 μM, 10 μM test compound; for IC50: read-out: Human FASN pIC50 (converted). Put shortly:
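Full-length in-house purified enzyme (300 ng) was tested in 100 mM KH2PO4 pH 7.5, 1 mM DTT with ³H-acetyl-CoA and malonyl-CoA as substrates; compounds ranged 0.01–30 μM. Reactions were stopped with streptavidin imaging beads, read by LEADseeker at 610 nm, and fitted to a 4-parameter logistic curve.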
In general terms: In a scintillation proximity assay essentially only radioactivity close to the scintillant gives light.

Each structure is given as a SMILES string.

T1 sequence (P49327 whole entry): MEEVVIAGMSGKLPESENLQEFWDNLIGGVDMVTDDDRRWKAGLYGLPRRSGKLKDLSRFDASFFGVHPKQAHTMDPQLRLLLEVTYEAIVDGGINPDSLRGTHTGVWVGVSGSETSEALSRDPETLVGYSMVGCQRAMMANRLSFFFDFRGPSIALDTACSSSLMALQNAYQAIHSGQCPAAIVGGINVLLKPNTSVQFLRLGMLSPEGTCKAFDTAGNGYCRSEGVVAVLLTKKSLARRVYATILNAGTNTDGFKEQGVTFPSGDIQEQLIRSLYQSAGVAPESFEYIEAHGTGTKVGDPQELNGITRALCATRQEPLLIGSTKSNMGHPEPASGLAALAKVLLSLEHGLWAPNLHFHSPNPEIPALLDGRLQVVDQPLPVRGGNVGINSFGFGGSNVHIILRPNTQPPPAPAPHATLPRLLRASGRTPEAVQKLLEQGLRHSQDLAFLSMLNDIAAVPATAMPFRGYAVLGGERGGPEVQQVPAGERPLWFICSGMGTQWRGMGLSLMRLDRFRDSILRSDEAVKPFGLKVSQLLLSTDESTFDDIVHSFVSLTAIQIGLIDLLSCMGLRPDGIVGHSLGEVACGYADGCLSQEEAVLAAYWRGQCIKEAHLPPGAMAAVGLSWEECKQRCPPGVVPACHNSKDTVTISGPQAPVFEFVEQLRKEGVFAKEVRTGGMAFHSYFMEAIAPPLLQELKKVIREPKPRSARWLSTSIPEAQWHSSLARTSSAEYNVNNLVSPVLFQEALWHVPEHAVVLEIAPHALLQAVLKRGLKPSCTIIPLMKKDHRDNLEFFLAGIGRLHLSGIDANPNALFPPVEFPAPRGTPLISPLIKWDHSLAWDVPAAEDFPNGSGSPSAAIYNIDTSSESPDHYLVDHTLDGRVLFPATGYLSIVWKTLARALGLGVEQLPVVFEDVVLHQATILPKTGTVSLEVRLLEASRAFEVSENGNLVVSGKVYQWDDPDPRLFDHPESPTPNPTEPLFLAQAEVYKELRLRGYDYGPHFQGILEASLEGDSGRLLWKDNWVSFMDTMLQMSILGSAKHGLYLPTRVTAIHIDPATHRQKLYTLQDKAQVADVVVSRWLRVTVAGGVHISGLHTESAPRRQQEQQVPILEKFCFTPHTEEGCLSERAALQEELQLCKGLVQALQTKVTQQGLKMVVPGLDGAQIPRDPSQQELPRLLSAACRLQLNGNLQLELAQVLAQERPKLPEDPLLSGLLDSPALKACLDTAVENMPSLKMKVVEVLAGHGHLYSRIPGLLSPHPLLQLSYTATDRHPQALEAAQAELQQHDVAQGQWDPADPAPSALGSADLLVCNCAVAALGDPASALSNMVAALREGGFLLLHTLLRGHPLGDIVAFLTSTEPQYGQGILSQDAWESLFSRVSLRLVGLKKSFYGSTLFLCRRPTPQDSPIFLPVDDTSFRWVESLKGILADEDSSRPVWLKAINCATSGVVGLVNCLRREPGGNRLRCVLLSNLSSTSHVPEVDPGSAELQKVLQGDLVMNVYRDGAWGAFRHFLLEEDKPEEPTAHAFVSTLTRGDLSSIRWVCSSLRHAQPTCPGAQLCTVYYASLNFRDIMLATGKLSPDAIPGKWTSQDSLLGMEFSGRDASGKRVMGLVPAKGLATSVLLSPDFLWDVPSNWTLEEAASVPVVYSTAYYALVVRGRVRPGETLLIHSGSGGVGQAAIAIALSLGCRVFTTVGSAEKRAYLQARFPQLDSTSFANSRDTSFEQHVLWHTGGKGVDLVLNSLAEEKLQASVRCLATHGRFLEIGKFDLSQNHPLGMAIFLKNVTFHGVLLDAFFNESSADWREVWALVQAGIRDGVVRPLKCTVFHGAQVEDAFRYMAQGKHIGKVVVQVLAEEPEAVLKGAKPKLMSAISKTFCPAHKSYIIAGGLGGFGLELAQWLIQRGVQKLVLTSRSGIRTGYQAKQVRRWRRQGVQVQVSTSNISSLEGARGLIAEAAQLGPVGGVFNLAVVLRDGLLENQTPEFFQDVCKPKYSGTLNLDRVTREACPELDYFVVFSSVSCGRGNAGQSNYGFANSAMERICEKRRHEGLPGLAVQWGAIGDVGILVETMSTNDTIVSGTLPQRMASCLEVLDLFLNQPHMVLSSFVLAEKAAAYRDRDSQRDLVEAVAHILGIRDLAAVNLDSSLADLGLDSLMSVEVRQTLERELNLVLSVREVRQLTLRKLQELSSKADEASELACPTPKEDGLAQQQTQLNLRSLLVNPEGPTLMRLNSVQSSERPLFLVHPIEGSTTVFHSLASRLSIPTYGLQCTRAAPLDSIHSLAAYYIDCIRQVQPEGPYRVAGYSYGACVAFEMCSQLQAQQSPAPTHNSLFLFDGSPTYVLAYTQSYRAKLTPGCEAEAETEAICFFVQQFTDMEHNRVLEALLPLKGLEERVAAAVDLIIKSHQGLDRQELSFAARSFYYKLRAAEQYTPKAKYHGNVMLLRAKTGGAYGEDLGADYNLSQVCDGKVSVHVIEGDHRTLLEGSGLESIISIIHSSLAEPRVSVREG

In the case of `N#CC1(c2ccc(-c3ccc(C4=NC5(CC5)C(=O)N4CC4CN(C(=O)C5CC5)C4)cc3)cn2)CC1` [compound 800, 1-(5-(4-(6-((1-(cyclopropanecarbonyl)azetidin-3-yl)methyl)-7-oxo-4,6-diazaspiro[2.4]hept-4-en-5-yl)phenyl)pyridin-2-yl)cyclopropanecarbonitrile], the inhibition (usually the drop in the measured response relative to a control, in per cent) at 10 µM was found to be 16% and the IC50 is greater than 10 µM.
As for `O=C(C1CC1)N1CC(CN2C(=O)C3(CC3)N=C2c2ccc(-c3cnc4cccnc4c3)cc2)C1` [compound 801, 5-(4-(1,5-naphthyridin-3-yl)phenyl)-6-((1-(cyclopropanecarbonyl)azetidin-3-yl)methyl),4-6diazaspiro[2.4]hept-4-en-7-one], the inhibition at 10 µM amounted to 6% and the IC50 is greater than 10 µM.
Taken in the same sequence, the figures for `O=C(C1CC1)N1CC[C@@H](CN2C(=O)C3(CC3)N=C2c2ccc(-c3cncc(Cl)c3)cc2)C1` [compound 802, (R)-5-(4-(5-chlorppyridin-3-yl)phenyl)-6-((1-(cyclopropanecarbonyl)pyrrolidin-3-yl)methyl)-4,6-diazaspiro[2.4]hept-4-en-7-one] were 24% and greater than 10 µM.
As for `O=C(C1CC1)N1CC(CN2C(=O)C3(CC3)N=C2c2ccc(-c3ccc4c(cnn4C4CC4)c3)cc2)C1` [compound 803, 6-((1-(cyclopropanecarbonyl)azetidin-3-yl)methyl)-5-(4-(1-cyclopropyl-1H-indazol-5-yl)phenyl)-4,6-diazaspiro[2.4]hept-4-en-7-one], the inhibition at 10 µM was found to be 48% and the IC50 is greater than 10 µM.
Taken in the same sequence, the figures for `O=C(C1CC1)N1CC(CN2C(=O)C3(CC3)N=C2c2ccc(-c3ccc4c(cnn4CC4CC4)c3)cc2)C1` [compound 804, 6-((1-(cyclopropanecarbonyl)azetidin-3-yl)methyl)-5-(4-(1-(cyclopropylmethyl)-1H-indazol-5-yl)phenyl)-4,6-diazaspiro[2.4]hept-4-en-7-one] were 41% and greater than 10 µM.
Regarding `Cc1cc(-c2ccc3c(cnn3C)c2)ccc1C1=NC2(CC2)C(=O)N1CC1CN(C(=O)c2cccnc2)C1` [compound 805, 5-(2-methyl-4-(1-methyl-1H-indazol-5-yl)phenyl)-6-((1-nicotinoylazetidin-3-yl)methyl)-4,6-diazaspiro[2.4]hept-4-en-7-one], the inhibition at 10 µM came out at 14% and the IC50 is greater than 10 µM.
With `O=C(C1CC1)N1CC(CN2C(=O)C3(CC3)N=C2c2ccc(-c3ccc(N4CCOCC4)nc3)cc2)C1` [compound 806, 6-((1-(cyclopropanecarbonyl)azetidin-3-yl)methyl)-5-(4-(6-morpholinopyridin-3-yl)phenyl)-4,6-diazaspiro[2.4]hept-4-en-7-one], the inhibition at 10 µM is -6% and the IC50 was greater than 10 µM.
Taken in the same sequence, the figures for `CC(C)n1ncc2cc(-c3ccc(C4=NC5(CC5)C(=O)N4CC4CN(C(=O)C5CC5)C4)cc3)ccc21` [compound 807, 6-((1-(cyclopropanecarbonyl)azetidin-3-yl)methyl)-5-(4-(1-isopropyl-1H-indazol-5-yl)phenyl)-4,6-diazaspiro[2.4]hept-4-en-7-one] were 7% and greater than 10 µM.
Regarding `CC(C)n1cc2cc(-c3ccc(C4=NC5(CC5)C(=O)N4CC4CN(C(=O)C5CC5)C4)cc3)ccc2n1` [compound 808, 6-((1-(cyclopropanecarbonyl)azetidin-3-yl)methyl)-5-(4-(2-isopropyl-2H-indazol-5-yl)phenyl)-4,6-diazaspiro[2.4]hept-4-en-7-one], the inhibition at 10 µM stood at 31% and the IC50 is greater than 10 µM.
Regarding `O=C1CCc2ccc(-c3ccc(C4=NC5(CC5)C(=O)N4C[C@@H]4CCN(C(=O)C5CC5)C4)cc3)cc2N1` [compound 809, (R)-7-(4-(6-((1-(cyclopropanecarbonyl)pyrrolidin-3-yl)methyl)-7-oxo-4,6-diazaspiro[2.4]hept-4-en-5-yl)phenyl)-3,4-dihydroquinolin-2(1H)-one], the inhibition at 10 µM was determined as 29% and the IC50 is greater than 10 µM.
The matching figures for `CC(C)n1cc2cc(-c3ccc(C4=NC5(CC5)C(=O)N4C[C@@H]4CCN(C(=O)C5CC5)C4)cc3)ccc2n1` [compound 811, (R)-6-((1-(cyclopropanecarbonyl)pyrrolidin-3-yl)methyl)-5-(4-(2-isopropyl-2H-indazol-5-yl)phenyl)-4,6-diazaspiro[2.4]hept-4-en-7-one]: 35% and greater than 10 µM.
For the molecule `Cc1ccc(-c2ccc(-c3ccc(C4=NC5(CC5)C(=O)N4C[C@H]4CCCN(C(=O)C5CC5)C4)cc3)cc2)cc1` [compound 812, (S)-6-((1-(cyclopropanecarbonyl)piperidin-3-yl)methyl)-5-(4″-methyl[1,1′:4′,1″- terphenyl]-4-yl)-4,6-diazaspiro[2.4]hept-4-en-7-one], the inhibition at 10 µM is 5% and the IC50 was greater than 10 µM.
Taken in the same sequence, the figures for `O=C(C1CC1)N1CCC[C@H](CN2C(=O)C3(CC3)N=C2c2ccc(-c3ccc(-c4cccc(Cl)c4)cc3)cc2)C1` [compound 813, (S)-5-(3″-chloro-[1,1′:4′,1″-tertphenyl]-4-yl)-6-((1-(cyclopropanecarbonyl)piperidin-3-yl)methyl)-4,6-diazaspiro[2.4]hept-4-en-7-one] were 2% and greater than 10 µM.
Consider `Cc1cc(C2=NC3(CC3)C(=O)N2CC2CN(C(=O)C3CC3)C2)ccc1-c1ccc2oc(C)c(C)c2c1` [compound 814, 6-((1-(cyclopropanecarbonyl)azetidin-3-yl)methyl)-5-(4-(2,3-dimethylbenzofuran-5-yl)-3-methylphenyl)-4,6-diazaspiro[2.4]hept-4-en-7-one], for which the inhibition at 10 µM worked out at 39% and the IC50 is greater than 10 µM.
In the case of `Cn1cc(-c2ccc(-c3ccc(C4=NC5(CC5)C(=O)N4C[C@H]4CCCN(C(=O)C5CC5)C4)cc3)cc2)cn1` [compound 815, (S)-6-((1-(cyclopropanecarbonyl)piperidin-3-yl)methyl)-5-(4′-(1-methyl-1H-pyrazol-4-yl)-[1,1′-biphenyl]-4-yl)-4,6-diazaspiro[2.4]hept-4-en-7-one], the inhibition at 10 µM worked out at 1% and the IC50 is greater than 10 µM.
The matching figures for `O=C(C1CC1)N1CCC[C@H](CN2C(=O)C3(CC3)N=C2c2ccc(-c3ccc4[nH]ncc4c3)cc2)C1` [compound 816, (S)-5-(4-(1H-indazol-5-yl)phenyl)-6-((1-(cyclopropanecarbonyl)piperidin-3-yl)methyl)-4,6-diazaspiro[2.4]hept-4-en-7-one]: 4% and greater than 10 µM.
`O=C(C1CC1)N1CCC[C@H](CN2C(=O)C3(CC3)N=C2c2ccc(-c3ccc4sccc4c3)cc2)C1` [compound 817, (S)-5-(4-(benzo[b]thiophen-5-yl)phenyl)-6-((1-(cyclopropanecarbonyl)piperidin-3-yl)methyl)-4,6-diazaspiro[2.4]hept-4-en-7-one]: the inhibition at 10 µM came to 1% and the IC50 was greater than 10 µM.
Take `O=C(C1CC1)N1CCC[C@H](CN2C(=O)C3(CC3)N=C2c2ccc(-c3ccc4occc4c3)cc2)C1` [compound 818, (S)-5-(4-(benzofuran-5-yl)phenyl)-6-((1-(cyclopropanecarbonyl)piperidin-3-yl)methyl)-4,6-diazaspiro[2.4]hept-4-en-7-one]: the inhibition at 10 µM was 2% and the IC50 is greater than 10 µM.
On to `Cn1ncc2cc(-c3ccc(C4=NC5(CC5)C(=O)N4C[C@H]4CCCN(C(=O)C5CC5)C4)cc3)ccc21` [compound 819, (S)-6-((1-(cyclopropanecarbonyl)piperidin-3-yl)methyl)-5-(4-(1-methyl-1H-indazol-5-yl)phenyl)-4,6-diazaspiro[2.4]hept-4-en-7-one], for which the inhibition at 10 µM is 10%.
As for `O=C(C1CC1)N1CCC[C@@H](CN2C(=O)C3(CC3)N=C2c2ccc(-c3ccc(-c4cccc(Cl)c4)cc3)cc2)C1` [compound 820, (R)-5-(3″-chloro-[1,1′:4′,1″-terphenyl]-4-yl)-6-((1-(cyclopropanecarbonyl)piperidin-3-yl)methyl)-4,6-diazaspiro[2.4]hept-4-en-7-one], the inhibition at 10 µM was determined as 33% and the IC50 is greater than 10 µM.
For `Cc1ccc(-c2ccc(-c3ccc(C4=NC5(CC5)C(=O)N4C[C@@H]4CCCN(C(=O)C5CC5)C4)cc3)cc2)cc1` [compound 821, (R)-6-((1-(cyclopropanecarbonyl)piperidin-3-yl)methyl)-5-(4″-methyl-[1,1′:4′,1″- terphenyl]-4-yl)-4,6-diazaspiro[2.4]hept-4-en-7-one], the inhibition at 10 µM turned out to be 7% and the IC50 was greater than 10 µM.
The matching figures for `Cc1cc(-c2cnc3c(c2)OCCN3C)ccc1C1=NC2(CCCC2)C(=O)N1C[C@@H]1CCN(C(=O)C2CC2)C1` [compound 822, (R)-3-((1-(cyclopropanecarbonyl)pyrrolidin-3-yl)methyl)-2-(2-methyl-4-(4-methyl-3,4-dihydro-2H-pyrido[3,2-b][1,4]oxazin-7-yl)phenyl)-1,3-diazaspiro[4.4]non-1-en-4-one]: 25% and greater than 10 µM.
With `Cn1cc(-c2ccc(-c3ccc(C4=NC5(CC5)C(=O)N4C[C@@H]4CCCN(C(=O)C5CC5)C4)cc3)cc2)cn1` [compound 823, (R)-6-((1-(cyclopropanecarbonyl)piperidin-3-yl)methyl)-5-(4′-(1-methyl-1H-pyrazol-4-yl)-[1,1′-biphenyl]-4-yl)-4,6-diazaspiro[2.4]hept-4-en-7-one], the inhibition at 10 µM came out at 31% and the IC50 is greater than 10 µM.
Taken in the same sequence, the figures for `O=C(C1CC1)N1CC[C@@H](CN2C(=O)C3(CCCC3)N=C2c2ccc(-c3ccnc(N4CCNCC4)c3)cc2)C1` [compound 828, (R)-3-((1-(cyclopropanecarbonyl)pyrrolidin-3-yl)methyl)-2-(4-(2-(piperazin-1-yl)pyridin-4-yl)phenyl)-1,3-diazaspiro[4.4]non-1-en-4-one] were 4% and greater than 10 µM.

The values are drawn from patent US10077261B2, “Imidazolin-5-one derivative useful as FASN inhibitors for the treatment of cancer” (Janssen Pharmaceutica NV, priority 2012, dated 2018).
